# US5994629A, “Positive selection” (priority 1991, dated 1999)
# Counter-ions that a name gives are not always drawn. Like-named read-outs stand apart in the source and are kept apart here.
# Key:
# [1] = tested on: leaf discs of tobacco with (GUS+) introduced β-glucuronidase genes; assay type: cell-based, Nicotiana tabacum 'Wisconsin 38'; conditions: test compounds at several concentrations up to 250 μM in MSO
# [2] = tested on: leaf discs of tobacco without (GUS-) introduced β-glucuronidase genes; assay type: cell-based, Nicotiana tabacum 'Wisconsin 38'; conditions: test compounds at several concentrations up to 250 μM in MSO
# [3] = biological target: β-glucuronidase from E. coli (Escherichia coli, UniProt P05804); test: Hydrolysis by β-glucuronidase (GUS), HPLC/TLC; assay type: biochemical; conditions: for Hydrolysis by β-glucuronidase (GUS), result in words: 50 mM sodium phosphate buffer pH 7.0, 37° C., HPLC/TLC
# Protocol: […] […] This confirms the identity of the product as a conjugate of BA and β-D-glucuronic acid.
# […] The presence of hydrolysis products is then determined using HPLC and TLC.
# [4] = tested on: sugarbeet cotyledon explants; test: Effect of D-xylose in sugarbeets with and without light; assay type: cell-based
# Protocol: Sugarbeet is transformed by the so-called cot-pet method as described in PCT Patent Application No. PCT DK92/00108 wherein cotyledons including the petiole are used as explants. Seedlings are derived from seeds germinated and grown for 4-7 weeks at 12° C. in a 16 h day/8 h night regime. Cotyledons are excised 2-3 mm below the node, tawn apart and cultured either in the dark or in light and in the presence or absence of xylose.
# [5] = tested on: Wild type explants; test: Shoot regeneration on mannose, sucrose and methyl-3-O-glucose, wild type; assay type: cell-based; conditions: sucrose 10 g/l, no mannose, no methyl 3O-glucose; Wild type tissue
# [6] = tested on: explants transgenic for the mannose 6-phosphate isomerase gene; test: Shoot regeneration on mannose, sucrose and methyl-3-O-glucose, Man-6-P-isomerase; assay type: cell-based; conditions: sucrose 10 g/l, no mannose, no methyl 3O-glucose; Transgenic tissue
# [7] = tested on: potato stem segments; test: Carbohydrate sources, potato stem segments, 9 weeks; assay type: cell-based; conditions: for # of Shoots per explant / activity at 10000 µg/mL / activity at 5000 µg/mL: 9 weeks; for activity at 10000 µg/mL / activity at 5000 µg/mL: Solanum tuberosum
# Description: Similar results are observed with potato stem segments after 9 weeks of culturing.
# [8] = tested on: explants; test: Inhibition of the toxicity of mannose by methyl-3-O-glucose; assay type: cell-based; conditions: MOG 0 g/l; mannose 0 g/l; sucrose 10 g/l
# Description: Example 25 is repeated except that the selection/regeneration substrate is supplemented with methyl 3-0-glucose (MOG) at the concentrations indicated in Table 25. The percentage of live explants is registered after 8 weeks.
# [9] = tested on: non-transformed potato stem segments; test: Inhibition by mannose of regeneration of shoots; assay type: cell-based, Solanum tuberosum; conditions: mannose 0 g/l
# Protocol: This substrate is referred to hereafter as "selection/regeneration substrate". Regenerated plants are produced as described above, except that the shoot segments are not co-cultured with bacteria and the washing procedure consequential thereon is omitted. […] In general, mannose cannot be used as a carbohydrate source in most plant species. When mannose is added to plants it is metabolized and mannose 6-phosphate accumulates. Mannose 6-phosphate can be converted to fructose 6-phosphate by mannose 6-phosphate isomerase, the amount converted being dependent upon the activity of the isomerase. Such fructose 6-phosphate may be utilized by plants, but in principal high levels of mannose (whether or not an alternative carbohydrate source is available) are toxic to plants.
# [10] = tested on: potato stem segments; test: D-xylose as carbohydrate source during shoot regeneration; assay type: cell-based
# Protocol: Explants are produced and treated as described above under "selection of transformed tissue", except that the selection/regeneration substrate was not supplemented with kanamycin or cabenicillin, and that plant tissue is not transformed. Thus the only subcultivation step is when the explants are transferred from the co-cultivation substrate to the selection/regeneration substrate which is supplemented with xylose at the concentrations indicated below. The number of regenerated shoots is recorded after 12 weeks.
# [11] = tested on: potato stem segments with control (Kanamycin resistant gene); test: Selection on D-xylose, potato transformed with control (kanamycin resistant gene); assay type: cell-based
# Protocol: (§1) Shoots are regenerated from potato stem segments treated with various concentrations of sucrose and D-xylose. The number of shoots are counted after 11 weeks of selection. 105 explants are tested per treatment.
# [12] = tested on: potato stem segments with pAH-Xyl; test: Selection on D-xylose, potato transformed with pAH-Xyl; assay type: cell-based
# Protocol: as §1
# [13] = D-xylose 0 g/l, sucrose 10 g/l, 2 weeks in dark and 1 week in light
# [14] = D-xylose 0 g/l, sucrose 10 g/l, 3 weeks light
# [15] = 10 g/l, read-out: Size % of control
# [16] = 10 g/l, read-out: explants alive % of control
# [17] = D-xylose 10 g/l, sucrose 0 g/l, 2 weeks in dark and 1 week in light
# [18] = D-xylose 10 g/l, sucrose 0 g/l, 3 weeks light
# [19] = D-xylose 10 g/l, sucrose 10 g/l, 2 weeks in dark and 1 week in light
# [20] = D-xylose 10 g/l, sucrose 10 g/l, 3 weeks light
# [21] = sucrose 2.5 g/l, D-xylose 2.5 g/l
# [22] = sucrose 2.5 g/l, D-xylose 2.5 g/l, 11 weeks, 105 explants
# [23] = sucrose 2.5 g/l, D-xylose 5.0 g/l
# [24] = sucrose 2.5 g/l, D-xylose 7.5 g/l
# [25] = sucrose 5.0 g/l, D-xylose 2.5 g/l
# [26] = sucrose 5.0 g/l, D-xylose 5.0 g/l
# [27] = sucrose 5.0 g/l, D-xylose 7.5 g/l
# [28] = sucrose 10.0 g/l, D-xylose 2.5 g/l
# [29] = sucrose 10.0 g/l, D-xylose 5.0 g/l
# [30] = sucrose 10.0 g/l, D-xylose 7.5 g/l
# Sequence of β-glucuronidase from E. coli (P05804 whole entry, looked up): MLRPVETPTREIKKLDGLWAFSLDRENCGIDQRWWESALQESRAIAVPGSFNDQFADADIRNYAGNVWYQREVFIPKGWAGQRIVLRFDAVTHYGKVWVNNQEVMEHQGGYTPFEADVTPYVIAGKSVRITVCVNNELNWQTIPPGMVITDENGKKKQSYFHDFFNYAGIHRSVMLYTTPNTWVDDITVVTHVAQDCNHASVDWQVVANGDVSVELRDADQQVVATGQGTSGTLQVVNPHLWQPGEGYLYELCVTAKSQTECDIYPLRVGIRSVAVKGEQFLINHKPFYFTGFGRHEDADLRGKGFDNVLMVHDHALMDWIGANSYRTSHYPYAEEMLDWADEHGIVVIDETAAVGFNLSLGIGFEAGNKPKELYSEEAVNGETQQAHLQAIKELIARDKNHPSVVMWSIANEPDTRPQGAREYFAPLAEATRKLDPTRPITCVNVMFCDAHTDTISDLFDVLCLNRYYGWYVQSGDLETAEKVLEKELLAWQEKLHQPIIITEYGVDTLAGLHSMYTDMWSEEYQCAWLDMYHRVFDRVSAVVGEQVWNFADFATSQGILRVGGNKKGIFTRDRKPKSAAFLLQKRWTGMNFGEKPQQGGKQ
compound,measurement,setting,value
"CC(C)=CCNc1ncnc2[nH]c(S[C@@H]3O[C@H](C(=O)O)[C@@H](O)[C@H](O)[C@H]3O)nc12 [IP8SGN sodium salt, 6-(3-methyl-but-2-enylamino)purine-8-yl-1-thio-β-D-glucopyranuronic acid, sodium salt]","Shoot formation, GUS+",[1],"+ (""+"" means shoot formation at concentrations below 250 μM)"
same,"Shoot formation, GUS-",[2],"+ (""+"" means shoot formation at concentrations below 250 μM)"
same,conversion to the aglycone by GUS,"[3]; 1 mg/ml, 2500 units GUS, 24 hours, 37° C., TLC",> 95%
"CC(C)=CCNc1ncn([C@@H]2O[C@H](C(=O)[O-])[C@@H](O)[C@H](O)[C@H]2O)c2ncnc1-2.[Na+] [IP3GN sodium salt, 3-β-D-glucopyranuronosyl-6-(3-methyl-but-2-enylamino)purine, sodium salt]","Shoot formation, GUS+",[1],"+ (""+"" means shoot formation at concentrations below 250 μM)"
same,"Shoot formation, GUS-",[2],"+ (""+"" means shoot formation at concentrations below 250 μM)"
same,"Hydrolysis by β-glucuronidase (GUS), result in words",[3],removal of the UV spot corresponding to IP3GN
OC[C@H]1O[C@@](CO)(O[C@H]2O[C@H](CO)[C@@H](O)[C@H](O)[C@H]2O)[C@@H](O)[C@@H]1O [sucrose],% expl. with shoots,[4]; [13],50%
same,Green (%),[4]; [13],97%
same,weight (wet),[4]; [13],1.38 g
same,% expl. with shoots,[4]; [14],98%
same,Green (%),[4]; [14],100%
same,weight (wet),[4]; [14],7.41 g
same,Regeneration of shoots,[5],1.7 shoots/explant
same,Regeneration of shoots,[6],1.4 shoots/explant
same,# of Shoots per explant,[7]; 10 g/l,2.8
same,activity at 10000 µg/mL,[7]; [15],100%
same,activity at 10000 µg/mL,[7]; [16],100%
same,percentage of live explants,[8],100
same,Regenerated shoots/explant (%),[9]; sucrose 10 g/l,50%
same,Regenerated shoots/explant (%),[9]; sucrose 20 g/l,53%
same,Number of regenerated shoots each stem segment,"[10]; xylose 0 g/l, sucrose 10 g/l",6
O=C[C@H](O)[C@@H](O)[C@H](O)CO [D-xylose],% expl. with shoots,[4]; [17],13%
same,Green (%),[4]; [17],77%
same,weight (wet),[4]; [17],0.37 g
same,% expl. with shoots,[4]; [18],90%
same,Green (%),[4]; [18],90%
same,weight (wet),[4]; [18],1.53 g
same,% expl. with shoots,[4]; [19],80%
same,Green (%),[4]; [19],97%
same,weight (wet),[4]; [19],0.89 g
same,% expl. with shoots,[4]; [20],97%
same,Green (%),[4]; [20],100%
same,weight (wet),[4]; [20],5.47 g
same,# of Shoots per explant,[7]; 5 g/l,0
same,# of Shoots per explant,[7]; 10 g/l,0
same,activity at 5000 µg/mL,"[7]; 5 g/l, read-out: Size % of control",17%
same,activity at 5000 µg/mL,"[7]; 5 g/l, read-out: explants alive % of control",0%
same,activity at 10000 µg/mL,[7]; [15],13%
same,activity at 10000 µg/mL,[7]; [16],0%
same,"effect on shoot regeneration, in words",[7]; potato stem segments when sucrose is present,inhibitor of shoot regeneration
same,GUS+ Shoots,[11]; [21],0
same,GUS+ Shoots/explants,[11]; [21],0
same,No. Shoots,[11]; [22],0
same,GUS+ Shoots,[11]; [23],0
same,GUS+ Shoots/explants,[11]; [23],0
same,No. Shoots,[11]; [23],0
same,GUS+ Shoots,[11]; [24],0
same,GUS+ Shoots/explants,[11]; [24],0
same,No. Shoots,[11]; [24],0
same,GUS+ Shoots,[11]; [25],0
same,GUS+ Shoots/explants,[11]; [25],0
same,No. Shoots,[11]; [25],0
same,GUS+ Shoots,[11]; [26],0
same,GUS+ Shoots/explants,[11]; [26],0
same,No. Shoots,[11]; [26],0
same,GUS+ Shoots,[11]; [27],0
same,GUS+ Shoots/explants,[11]; [27],0
same,No. Shoots,[11]; [27],0
same,GUS+ Shoots,[11]; [28],0
same,GUS+ Shoots/explants,[11]; [28],0
same,GUS+ shoots/no. Shoots (%),[11]; [28],0%
same,No. Shoots,[11]; [28],32
same,GUS+ Shoots,[11]; [29],0
same,GUS+ shoots/no. Shoots (%),[11]; [29],0%
same,No. Shoots,[11]; [29],5
same,GUS+ Shoots,[11]; [30],0
same,GUS+ Shoots/explants,[11]; [30],0
same,GUS+ shoots/no. Shoots (%),[11]; [30],0%
same,No. Shoots,[11]; [30],2
same,GUS+ Shoots,[12]; [21],0
same,GUS+ Shoots/explants,[12]; [21],0
same,No. Shoots,[12]; [22],0
same,GUS+ Shoots,[12]; [23],0
same,GUS+ Shoots/explants,[12]; [23],0
same,No. Shoots,[12]; [23],0
same,GUS+ Shoots,[12]; [24],0
same,GUS+ Shoots/explants,[12]; [24],0
same,No. Shoots,[12]; [24],0
same,GUS+ Shoots,[12]; [25],0
same,GUS+ Shoots/explants,[12]; [25],0
same,No. Shoots,[12]; [25],0
same,GUS+ Shoots,[12]; [26],0
same,GUS+ Shoots/explants,[12]; [26],0
same,No. Shoots,[12]; [26],0
same,GUS+ Shoots,[12]; [27],0
same,GUS+ Shoots/explants,[12]; [27],0
same,No. Shoots,[12]; [27],0
same,GUS+ Shoots,[12]; [28],5
same,GUS+ Shoots/explants,[12]; [28],0.05
same,GUS+ shoots/no. Shoots (%),[12]; [28],6%
same,No. Shoots,[12]; [28],84
same,GUS+ Shoots,[12]; [29],0
same,GUS+ Shoots/explants,[12]; [29],0
same,GUS+ shoots/no. Shoots (%),[12]; [29],0%
same,No. Shoots,[12]; [29],20
same,GUS+ Shoots,[12]; [30],4
same,GUS+ Shoots/explants,[12]; [30],0.04
same,GUS+ shoots/no. Shoots (%),[12]; [30],57.1%
same,No. Shoots,[12]; [30],7
same,"inhibition of shoot regeneration, in words","[10]; when sucrose is present, compared to D-mannose",weak inhibitor of shoot regeneration
same,Number of regenerated shoots each stem segment,"[10]; xylose 5 g/l, sucrose 0 g/l, 12 weeks",0
same,Number of regenerated shoots each stem segment,"[10]; xylose 5 g/l, sucrose 10 g/l",3
same,Number of regenerated shoots each stem segment,"[10]; xylose 10 g/l, sucrose 0 g/l",0
same,Number of regenerated shoots each stem segment,"[10]; xylose 10 g/l, sucrose 10 g/l",0
same,Number of regenerated shoots each stem segment,"[10]; xylose 20 g/l, sucrose 0 g/l",0
same,Number of regenerated shoots each stem segment,"[10]; xylose 20 g/l, sucrose 10 g/l",0
"C/C(=C\CNc1ncnc2[nH]cnc12)CO[C@@H]1O[C@H](C(=O)O)[C@@H](O)[C@H](O)[C@H]1O [ZOGN sodium salt, O-β-D-glucopyranuronosylzeatin, sodium salt]","Shoot formation, GUS+",[1],"+ (""+"" means shoot formation at concentrations below 250 μM)"
same,"Shoot formation, GUS-",[2],"+ (""+"" means shoot formation at concentrations below 250 μM)"
same,"Hydrolysis by β-glucuronidase (GUS), result in words",[3],virtually complete conversion to trans zeatin
